Laboratory results as given in publication PMC7160673, “A Degenerate Peptide Library Approach to Reveal Sequence Determinants of Methyllysine-Driven Protein Interactions” (Frontiers in Cell and Developmental Biology, 2020).

Test system: CST 9733 (anti-H3K27me3)
Experiment: Histone peptide microarray, CST 9733
Format: binding
Conditions: histone peptide array signal normalized to the highest peptide average per subarray, hits; CST 9733 LOT:14 dilution 1:5,000
Experimental: (§1) Peptide microarrays were fabricated using an Aushon 2470 microarrayer and used as described ([Cornett et al., 2017]) with the following modifications. Protein and antibody hybridization steps were performed in buffer containing 25 mM HEPES pH 7.5, 100 mM NaCl, 0.5% BSA (w/v), and 0.1% NP-40. Slides were washed 3 × 5 min in PBS supplemented with 0.1% Tween-20 between each hybridization step. Antibodies used were primary anti-GST (Sigma #7781, 1:2,000 dilution) and an AlexaFluor 647-labeled secondary antibody (Life Technologies A-21245, 1:5,000 dilution). […] Full lists of peptides queried by array analysis are in Supplementary Table S2.

Point of comparison: “Ac-GK(Ac)GGAK(Ac)RHRKVLRDNIQ-Peg-Biot [H4K12acK16ac H4(11-27)]”, “Avg Signal” value 3.787e-5. Against it:
- ARTK(Me3)QTARKSTGGKAPRKQL-K(Biot)-NH2 [H3.1K4me3 H3.1(1-20)] — higher, 0.001817
- AR(Me2a)TK(Me3)QTARK(Ac)pSTGGK(Ac)APRK(Ac)QL-K(Biot)-NH2 [H3.1R2me2aK4me3K9acS10pK14acK18ac] — higher, 0.001633
- PEPAK(Me2)SAPAPKKGSKKAVTKAQKK-Peg-Biot [Peptide H2BK5me2] — higher, 0.0008674
- ARTKQpTAR(Me2a)K(Me3)STGGKAPRKQL-K(Biot)-NH2 [H3.1T6pR8me2aK9me3] — higher, 0.008944
- KSAPSTGGVK(Me)KPHRYRPGT-G-K(Biot)-NH2 [Peptide H3.3K36me1] — higher, 0.0007823
- Ac-RRYQKSTELL-Peg-Biot [H3.1.1(52-61)] — the same, 3.787e-5
- Ac-SGRGKGGKGLGK(Ac)GGAKRHRK(Ac)VLR-Peg-Biot [Peptide H4K12acK20ac] — higher, 0.0004147
- SGRGK(Ac)QGGK(Ac)ARAK(Ac)AK(Ac)TR-Peg-Biot [H2AK5acK9acK13acK15ac(noN-ac)] — higher, 6.218e-5
- Ac-SGRGKGGK(Ac)GLGK(Ac)GGAKRHRKVLR-Peg-Biot [Peptide H4K8acK12ac] — higher, 0.0001351
- Ac-SGRGKTGGKARAKAKSR-Peg-Biotin [H2A.X(1-17)] — the same, 3.787e-5
- H3.1.1(15-34) H3.1(15-34): arrayed peptide ID 202 or 2551; same annotation and length — higher, 0.0005485
- ARTKQTAR-NleSTGGKAPRKQL-Peg-Biot [Peptide H3.1K9-Nle] — higher, 0.0002703
- ATKAARKSAPATGGVK(Me3)KPHRYRPG-GK(Biotin)-OH [H3.1K36me3 H3.1(21-44)] — higher, 0.0006093
- Ac-APRKQLATK(Ac)AARKSAPSTGG-Peg-Biot [Peptide H3.3K23ac] — higher, 0.0001716
- Ac-GKGGAKRHRKVLRDNIQ-Peg-Biot [H4(11-27)] — higher, 0.0004161
- PRRRRRRGSSGAGGRGRTCS-Peg-Biot [Peptide H2A.B] — lower, 0
- Ac-APRKQLATKAAR(Me2a)KSAPSTGG-Peg-Biot [Peptide H3.3R26me2a] — higher, 0.0004634
- Ac-SGCitGK(Ac)QGGKARAKAKTR-Peg-Biot [Peptide H2ACit3K5ac] — lower, 1.355e-5
- Ac-GK(Ac)GGAK(Ac)RHRK(Me2)VLRDNIQ-Peg-Biot [H4K12acK16acK20me2] — higher, 0.0001487
- Ac-SGRGKGGKGLGK(Ac)GGAK(Ac)RHRKVLR-Peg-Biot [H4K12acK16ac H4(1-23)] — higher, 3.927e-5
- Ac-SAAKASQSRSAKAGLT-Peg-Biotin [yH2A(10-25)] — higher, 6.218e-5
- ARTK(Me3)QTARKST-Peg-Biot [H3.1K4me3 H3.1(1-11)] — lower, 1.495e-5
- Ac-SGRGK(Me)GGK(Ac)GLGK(Ac)GGAK(Ac)RHRKVLR-Peg-Biot [H4K5me1K8acK12acK16ac] — lower, 1.398e-6
- KSAPSTGGVK(Me3)KPHRYKPGT-G-K(Biot)-NH2 [yH3K36me3] — higher, 0.0003217

Test system: Millipore #07-449, anti-H3K27me3
Experiment: Histone peptide microarray, Millipore 07-449
Format: binding
Conditions: Millipore 07-449 (anti-H3K27me3) hits, average signal per peptide
Experimental: as §1

Point of comparison: “ARTKQTAR-NleSTGGKAPRKQL-Peg-Biot [Peptide H3.1K9-Nle]”, “Avg Signal” value 0.001582. Against it:
- AR(Me2a)TK(Me3)QTARK(Ac)pSTGGK(Ac)APRK(Ac)QL-K(Biot)-NH2 [H3.1R2me2aK4me3K9acS10pK14acK18ac] — lower, 0.0008355
- ARTKQpTAR(Me2a)K(Me3)STGGKAPRKQL-K(Biot)-NH2 [H3.1T6pR8me2aK9me3] — higher, 0.006631
- KSAPSTGGVK(Me)KPHRYRPGT-G-K(Biot)-NH2 [Peptide H3.3K36me1] — higher, 0.009576
- Ac-RRYQKSTELL-Peg-Biot [H3.1.1(52-61)] — lower, 0.0002743
- Ac-SGRGKGGKGLGK(Ac)GGAKRHRK(Ac)VLR-Peg-Biot [Peptide H4K12acK20ac] — higher, 0.007438
- Ac-SGRGKGGK(Ac)GLGK(Ac)GGAKRHRKVLR-Peg-Biot [Peptide H4K8acK12ac] — higher, 0.006396
- Ac-APRKQLATKAAR(Me2a)KSAPSTGG-Peg-Biot [Peptide H3.3R26me2a] — higher, 0.001966
- Ac-SGRGK(Me)GGK(Ac)GLGK(Ac)GGAK(Ac)RHRKVLR-Peg-Biot [H4K5me1K8acK12acK16ac] — higher, 0.002528

Test system: Active Motif #39161, anti-H3K9me3
Experiment: Histone peptide microarray, Active Motif 39161
Format: binding
Conditions: Active Motif 39161 (anti-H3K9me3) hits
Experimental: as §1

Point of comparison: “Ac-APRKQLATKAAR(Me2a)KSAPSTGG-Peg-Biot [Peptide H3.3R26me2a]”, “Avg Signal” value 0.01154. Against it:
- AR(Me2a)TK(Me3)QTARK(Ac)pSTGGK(Ac)APRK(Ac)QL-K(Biot)-NH2 [H3.1R2me2aK4me3K9acS10pK14acK18ac] — lower, 0.01104
- ARTKQpTAR(Me2a)K(Me3)STGGKAPRKQL-K(Biot)-NH2 [H3.1T6pR8me2aK9me3] — higher, 0.6906
- KSAPSTGGVK(Me)KPHRYRPGT-G-K(Biot)-NH2 [Peptide H3.3K36me1] — lower, 0.0005946
- Ac-RRYQKSTELL-Peg-Biot [H3.1.1(52-61)] — lower, 0.0005198
- Ac-SGRGKGGKGLGK(Ac)GGAKRHRK(Ac)VLR-Peg-Biot [Peptide H4K12acK20ac] — lower, 0.009155
- Ac-SGRGKGGK(Ac)GLGK(Ac)GGAKRHRKVLR-Peg-Biot [Peptide H4K8acK12ac] — lower, 0.0006444
- Ac-SGRGKTGGKARAKAKSR-Peg-Biotin [H2A.X(1-17)] — lower, 0.0004918
- Ac-APRKQLATK(Ac)AARKSAPSTGG-Peg-Biot [Peptide H3.3K23ac] — lower, 0.006441
- Ac-GKGGAKRHRKVLRDNIQ-Peg-Biot [H4(11-27)] — higher, 0.04504
- Ac-SGRGK(Me)GGK(Ac)GLGK(Ac)GGAK(Ac)RHRKVLR-Peg-Biot [H4K5me1K8acK12acK16ac] — lower, 0.0048

Test system: Abcam #ab8895, anti-H3K4me1
Experiment: Histone peptide microarray, Abcam ab8895
Format: binding
Conditions: Abcam ab8895 (anti-H3K4me1) hits, average signal per peptide
Experimental: as §1

Point of comparison: “Ac-SGRGK(Me)GGK(Ac)GLGK(Ac)GGAK(Ac)RHRKVLR-Peg-Biot [H4K5me1K8acK12acK16ac]”, “Avg Signal” value 0.01497. Against it:
- KSAPSTGGVK(Me)KPHRYRPGT-G-K(Biot)-NH2 [Peptide H3.3K36me1] — lower, 0.003496
- Ac-SGRGKGGKGLGK(Ac)GGAKRHRK(Ac)VLR-Peg-Biot [Peptide H4K12acK20ac] — lower, 0.005228
- Ac-SGRGKGGK(Ac)GLGK(Ac)GGAKRHRKVLR-Peg-Biot [Peptide H4K8acK12ac] — lower, 0.002906
- ARTKQTAR-NleSTGGKAPRKQL-Peg-Biot [Peptide H3.1K9-Nle] — higher, 0.1441

Test system: 53BP1 TTD
Experiment: Histone peptide microarray, 53BP1 TTD
Format: binding
Conditions: 53BP1 TTD hits, average signal per peptide
Experimental: as §1

Point of comparison: “Ac-GKGGAKRHRKVLRDNIQ-Peg-Biot [H4(11-27)]”, “Avg Signal” value 0.128. Against it:
- AR(Me2a)TK(Me3)QTARK(Ac)pSTGGK(Ac)APRK(Ac)QL-K(Biot)-NH2 [H3.1R2me2aK4me3K9acS10pK14acK18ac] — lower, 0.02248
- PEPAK(Me2)SAPAPKKGSKKAVTKAQKK-Peg-Biot [Peptide H2BK5me2] — higher, 0.1922
- SGRGK(Ac)QGGK(Ac)ARAK(Ac)AK(Ac)TR-Peg-Biot [H2AK5acK9acK13acK15ac(noN-ac)] — higher, 0.2522
- Ac-SGCitGK(Ac)QGGKARAKAKTR-Peg-Biot [Peptide H2ACit3K5ac] — lower, 0.009599
- KSAPSTGGVK(Me3)KPHRYKPGT-G-K(Biot)-NH2 [yH3K36me3] — lower, 0.1137
